Values after ≈ are worked out from the molar mass of the structure shown. Ends that are not written are not given here. Where only a bound is given, the exact number is not on record here.

This assay deals with E. coli ATCC 25922. The class given is cell-based, Escherichia coli. The procedure:
The minimum inhibitory concentration (MIC) of Tritrp1 and its Trp-substituted analogs against E. coli ATCC 25922 was measured by the standard broth microdilution method. Bacteria (5 × 10^5 CFU/mL) were incubated overnight at 37 °C in Mueller-Hinton broth (MHB) and in the presence of peptides diluted in a two-fold concentration series ranging from 0.25–128 µM in a 96-well polypropylene plate. The reported MIC values correspond to the minimum peptide concentration where bacterial growth was not observed. After overnight incubation, 10 µL from the first three wells without bacterial growth for each peptide in the MIC plate were diluted 1:10^6 in MHB, and 100 µL of this dilution was plated in MHB-agar. After incubation overnight at 37 °C, the minimum bactericidal concentration (MBC) was reported as the minimum peptide concentration where no colony formation was detected.
By MBC is commonly meant the smallest concentration meeting the test's criterion for killing. What is called MIC is the smallest concentration in the dilution series that meets the test's criterion for growth inhibition. High values mean a need for much substance, low ones inhibition by little substance. VRRFPAWAPFLRR-NH2 [Peptide W68A] returned an MBC of 64 to 128 µM and a minimal inhibitory concentration (MIC) of 64 to 128 µM.

Regarding VRRFPAWWPFLRR-NH2 [Peptide W6A], the MBC lay within 32 to 64 µM and the minimum inhibitory concentration (MIC) lay in the range of 32 to 64 µM. Molecule VRRFPWAWPFLRR-NH2 [Peptide W7A] displayed an MBC of 16 µM and a minimal inhibitory concentration (MIC) of 16 µM.

Regarding VRRFPYYWPFLRR-NH2 [Peptide W67Y], the MBC is given as 32 µM and the MIC was 32 µM.

The molecule VRRFPYWWPFLRR-NH2 [Peptide W6Y] yielded an MBC of 16 µM and an MIC of 16 µM. Molecule VRRFPWYYPFLRR-NH2 [Peptide W78Y] came in with an MBC of 16 µM and a minimum inhibitory concentration (MIC) of 16 µM. As for VRRFPYWYPFLRR-NH2 [Peptide W68Y], the minimum bactericidal concentration (MBC) is reported as 16 µM and the MIC stood at 16 µM. Turning to VRRFPAAWPFLRR-NH2 [Peptide W67A], the MBC is 64 to 128 µM and the MIC is 64 to 128 µM.

In the case of VRRFPWWYPFLRR-NH2 [Peptide W8Y], the MBC was determined as 4 µM and the MIC is listed as 4 µM. For the molecule VRRFPAAAPFLRR-NH2 [A-Tritrp], the minimum bactericidal concentration (MBC) is >128 µM and the MIC was >128 µM. Regarding `CC(C)C[C@H](NC(=O)[C@H](Cc1ccccc1)NC(=O)[C@@H]1CCCN1C(=O)[C@H](Cc1c[nH]c2ccccc12)NC(=O)[C@H](Cc1c[nH]c2ccccc12)NC(=O)[C@H](Cc1c[nH]c2ccccc12)NC(=O)[C@@H]1CCCN1C(=O)[C@H](Cc1ccccc1)NC(=O)[C@H](CCCNC(=N)N)NC(=O)[C@H](CCCNC(=N)N)NC(=O)[C@@H](N)C(C)C)C(=O)N[C@@H](CCCNC(=N)N)C(=O)N[C@@H](CCCNC(=N)N)C(N)=O` [Tritrp1, reference compound], the minimum bactericidal concentration (MBC) stood at 4 µM (≈ 7.61 µg/mL) and the MIC came out at 4 µM (≈ 7.61 µg/mL). In the case of VRRFPYYYPFLRR-NH2 [Y-Tritrp], the minimum bactericidal concentration (MBC) was in the range of 16 to 32 µM.

For VRRFPWWAPFLRR-NH2 [Peptide W8A], the MBC was found to be 8 µM and the MIC came to 8 µM. As to VRRFPWAAPFLRR-NH2 [Peptide W78A], the minimal bactericidal concentration (MBC) lay within 64 to 128 µM and the MIC fell in the range of 64 to 128 µM. The molecule VRRFPWYWPFLRR-NH2 [Peptide W7Y] returned an MBC of 8 µM and a minimum inhibitory concentration (MIC) of 8 µM.
